Results reported in ChEMBL document CHEMBL5518230, “Identification of a Novel Selective CDK9 Inhibitor for the Treatment of CRC: Design, Synthesis, and Biological Activity Evaluation” (J Med Chem, 2024).
Activity calls are given as the source filed them. The rule behind the calls is not given here.

How the values were obtained:
CYP2C9 = CYP2C9 (Homo sapiens, UniProt P11712); assay: Inhibition of CYP2C9 in human liver microsomes using sulfaphenazole as […] at 10 uM preincubated for 10 mins followed by NADPH addition measured after 15 mins by LC-MS/MS analysis relative to control; type: ADME, Microsome; conditions: probe sulfaphenazole, time 25 min
HCT-116 [1] = assay: Inhibition of colony formation in human HCT-116 cells assessed as reduction in colony number incubated for 14 days by crystal violet staining assay; type: functional, cell-based; conditions: time 14.0 day
HCT-116 [2] = assay: Antitumor activity against human HCT-116 cells xenografted in BALB/c mouse assessed as tumor growth inhibition at po administrated once daily for 3 weeks; type: functional, organism-based
[3] = target: Cyclin-dependent kinase 12 (Homo sapiens, UniProt Q9NYV4); assay: Inhibition of CDK12 (unknown origin)
[4] = C0 in Sprague-Dawley rat at 2 mg/kg,iv administration measured for 0.25 to 24 hrs by LC-MS/MS analysis; type: ADME, organism-based; conditions: in vivo, time 0.25-24 hrs
HCT-116 [5] = assay: Antitumor activity against human HCT-116 cells xenografted in BALB/c mouse assessed as downregulation of Mcl-1 expression at 25 mg/kg,po administrated once daily for 3 weeks by Western blotting analysis; type: functional, organism-based
[6] = target: Cyclin-dependent kinase 6 (Homo sapiens, UniProt Q00534); assay: Inhibition of CDK6 (unknown origin)
HCT-116 [7] = assay: Induction of apoptosis in human HCT-116 cells assessed as downregulation of […] mRNA expression at 25 to 400 nM incubated for 48 hrs by qRT-PCR analysis; type: functional, cell-based; conditions: dose 25-400 nM
[8] = MRT (0 to infinity) in Sprague-Dawley rat at 10 mg/kg,po administration measured for 0.25 to 24 hrs by LC-MS/MS analysis; type: ADME, organism-based; conditions: in vivo, time 0.25-24 hrs
[9] = Cmax in Sprague-Dawley rat at 2 mg/kg,iv administration measured for 0.25 to 24 hrs by LC-MS/MS analysis; type: ADME, organism-based; conditions: in vivo, time 0.25-24 hrs
HT-29 = assay: Growth inhibition of human HT-29 cells incubated for 48 hrs by CCK-8 assay; type: functional
CYP3A4 = CYP3A4 (Homo sapiens, UniProt P08684); assay: Inhibition of CYP3A4 in human liver microsomes using ketoconazole as […] at 10 uM preincubated for 10 mins followed by NADPH addition measured after 15 mins by LC-MS/MS analysis relative to control; type: ADME, Microsome; conditions: probe ketoconazole, time 25 min
[10] = Stability in human liver microsomes assessed as compound remaining at 100 uM measured upto 60 mins in presence of NADPH by LC-MS/MS analysis; type: ADME, Microsome; conditions: read-out: Stability
HCT-116 [11] = assay: Induction of apoptosis in human HCT-116 cells assessed as increase in late apoptotic cells incubated for 48 hrs by Annexin V-FITC/PI staining based flow cytometric analysis; type: functional, cell-based
[12] = target: Serine/threonine-protein kinase PAK 4 (Homo sapiens) (UniProt O96013); assay: Inhibition of human PAK4 at 100 nM by kinase profiling assay relative to control
HCT-116 [13] = assay: Induction of apoptosis in human HCT-116 cells assessed as effect on RNA polymerase II expression at 25 to 400 nM incubated for 48 hrs by Western blotting analysis; type: functional, cell-based; conditions: dose 25-400 nM
HCT-116 [14] = assay: Antitumor activity against human HCT-116 cells xenografted in BALB/c mouse assessed as upregulation of PARP expression at 50 mg/kg,po administrated once daily for 3 weeks by Western blotting analysis; type: functional, organism-based
[15] = Bioavailability in Sprague-Dawley rat at 2 mg/kg,iv administration measured for 0.25 to 24 hrs by LC-MS/MS analysis; type: ADME, organism-based; conditions: in vivo, time 0.25-24 hrs
HCT-116 [16] = assay: Antitumor activity against human HCT-116 cells xenografted in BALB/c mouse assessed as downregulation of PARP expression at 25 mg/kg,po administrated once daily for 3 weeks by Western blotting analysis; type: functional, organism-based
HCT-116 [17] = assay: Induction of apoptosis in human HCT-116 cells assessed as downregulation of PARP expression at 25 to 400 nM incubated for 48 hrs by Western blotting analysis; type: functional, cell-based; conditions: dose 25-400 nM
[18] = AUC (0 to t) in Sprague-Dawley rat at 2 mg/kg,iv administration measured for 0.25 to 24 hrs by LC-MS/MS analysis; type: ADME, organism-based; conditions: in vivo, time 0.25-24 hrs
[19] = Toxicity in BALB/c mouse xenografted with human HCT-116 cells assessed as body weight loss at 25 mg/kg,po administrated once daily for 3 weeks; type: organism-based; conditions: in vivo, 504 h
HCT-116 [20] = assay: Antitumor activity against human HCT-116 cells xenografted in BALB/c mouse assessed as downregulation of RNA polymerase II phosphorylation at 50 mg/kg,po administrated once daily for 3 weeks by Western blotting analysis; type: functional, organism-based
[21] = target: Homeodomain-interacting protein kinase 1 (Homo sapiens) (UniProt Q86Z02); assay: Inhibition of human HIPK1 at 100 nM by kinase profiling assay relative to control
[22] = target: Activin receptor type-1B (Homo sapiens) (UniProt P36896); assay: Inhibition of human ALK4 at 100 nM by kinase profiling assay relative to control
[23] = MRT (0 to infinity) in Sprague-Dawley rat at 2 mg/kg,iv administration measured for 0.25 to 24 hrs by LC-MS/MS analysis; type: ADME, organism-based; conditions: in vivo, time 0.25-24 hrs
[24] = target: Cyclin-dependent kinase 7 (Homo sapiens, UniProt P50613); assay: Inhibition of CDK7 (unknown origin)
[25] = Toxicity in BALB/c mouse xenografted with human HCT-116 cells assessed as liver morphological change at 50 mg/kg,po administrated once daily for 3 weeks by hematoxylin and eosin staining based microscopic analysis; type: organism-based; conditions: in vivo, 504 h
[26] = target: Protein kinase C alpha type (Homo sapiens) (UniProt P17252); assay: Inhibition of human PKCalpha at 100 nM by kinase profiling assay relative to control
[27] = target: Cyclin-dependent kinase 8 (Homo sapiens, UniProt P49336); assay: Inhibition of CDK8 (unknown origin)
[28] = target: cAMP-dependent protein kinase catalytic subunit alpha (Homo sapiens) (UniProt P17612); assay: Inhibition of human PKACalpha at 100 nM by kinase profiling assay relative to control
[29] = Selectivity index, ratio of GI50 for growth inhibition of human SW480 cells to GI50 for growth inhibition of human HCT-116 cells; type: functional
[30] = target: Cyclin-dependent kinase 9 (Homo sapiens, UniProt P50750); assay: Inhibition of CDK9 (unknown origin)
[31] = target: Cyclin-dependent kinase 4 (Homo sapiens, UniProt P11802); assay: Inhibition of CDK4 (unknown origin)
[32] = AUC (0 to t) in Sprague-Dawley rat at 10 mg/kg,po administration measured for 0.25 to 24 hrs by LC-MS/MS analysis; type: ADME, organism-based; conditions: in vivo, time 0.25-24 hrs
HCT-116 [33] = assay: Induction of apoptosis in human HCT-116 cells assessed as increase in caspase-3 activity incubated for 48 hrs by GreenNuc substrate based flow cytometric analysis; type: functional, cell-based
[34] = Toxicity in BALB/c mouse xenografted with human HCT-116 cells assessed as body weight loss at 50 mg/kg,po administrated once daily for 3 weeks; type: organism-based; conditions: in vivo, 504 h
[35] = Toxicity in BALB/c mouse xenografted with human HCT-116 cells assessed as spleen morphological change at 50 mg/kg,po administrated once daily for 3 weeks by hematoxylin and eosin staining based microscopic analysis; type: organism-based; conditions: in vivo, 504 h

Chain of Activin receptor type-1B (Homo sapiens) (P36896 whole entry): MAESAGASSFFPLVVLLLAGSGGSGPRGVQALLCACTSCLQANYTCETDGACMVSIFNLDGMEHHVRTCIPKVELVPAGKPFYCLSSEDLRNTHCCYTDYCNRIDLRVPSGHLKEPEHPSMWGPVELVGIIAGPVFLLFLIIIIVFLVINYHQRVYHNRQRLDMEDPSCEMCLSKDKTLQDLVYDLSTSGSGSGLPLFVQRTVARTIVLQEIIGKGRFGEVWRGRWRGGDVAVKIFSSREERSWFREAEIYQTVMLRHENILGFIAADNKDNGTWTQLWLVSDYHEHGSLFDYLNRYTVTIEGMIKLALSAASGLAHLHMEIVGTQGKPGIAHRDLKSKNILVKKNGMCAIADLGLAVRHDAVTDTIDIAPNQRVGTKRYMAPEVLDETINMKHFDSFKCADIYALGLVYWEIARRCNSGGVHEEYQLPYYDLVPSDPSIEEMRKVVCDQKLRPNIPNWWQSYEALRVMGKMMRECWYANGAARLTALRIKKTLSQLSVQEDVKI
Chain of CYP2C9 (P11712 whole entry): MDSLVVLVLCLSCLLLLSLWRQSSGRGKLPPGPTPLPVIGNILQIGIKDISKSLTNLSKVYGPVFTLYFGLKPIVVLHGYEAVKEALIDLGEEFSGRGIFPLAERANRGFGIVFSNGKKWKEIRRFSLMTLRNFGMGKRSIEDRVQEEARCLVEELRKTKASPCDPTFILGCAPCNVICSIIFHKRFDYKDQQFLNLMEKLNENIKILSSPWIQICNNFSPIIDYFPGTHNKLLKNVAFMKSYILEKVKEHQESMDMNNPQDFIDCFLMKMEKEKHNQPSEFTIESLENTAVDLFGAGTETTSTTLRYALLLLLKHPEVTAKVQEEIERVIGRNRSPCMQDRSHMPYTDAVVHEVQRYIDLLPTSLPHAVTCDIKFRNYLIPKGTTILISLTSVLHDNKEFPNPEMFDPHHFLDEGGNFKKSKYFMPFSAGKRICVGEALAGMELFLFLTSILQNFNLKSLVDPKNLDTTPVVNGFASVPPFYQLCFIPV
Chain of Cyclin-dependent kinase 8 (P49336 whole entry): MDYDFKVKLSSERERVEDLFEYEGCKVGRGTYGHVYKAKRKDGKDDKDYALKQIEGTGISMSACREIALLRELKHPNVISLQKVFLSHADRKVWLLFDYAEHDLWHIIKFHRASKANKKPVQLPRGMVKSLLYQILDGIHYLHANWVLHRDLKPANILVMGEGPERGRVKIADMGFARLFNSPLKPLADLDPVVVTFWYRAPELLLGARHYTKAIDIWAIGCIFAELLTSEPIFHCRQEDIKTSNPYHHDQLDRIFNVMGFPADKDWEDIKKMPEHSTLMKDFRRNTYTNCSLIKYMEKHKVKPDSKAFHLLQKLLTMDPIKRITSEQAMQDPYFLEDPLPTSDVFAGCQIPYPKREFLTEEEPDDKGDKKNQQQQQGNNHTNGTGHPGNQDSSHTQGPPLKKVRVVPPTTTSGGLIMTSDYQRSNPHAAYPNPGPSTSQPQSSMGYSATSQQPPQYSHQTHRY
Chain of Homeodomain-interacting protein kinase 1 (Homo sapiens) (Q86Z02 whole entry, looked up): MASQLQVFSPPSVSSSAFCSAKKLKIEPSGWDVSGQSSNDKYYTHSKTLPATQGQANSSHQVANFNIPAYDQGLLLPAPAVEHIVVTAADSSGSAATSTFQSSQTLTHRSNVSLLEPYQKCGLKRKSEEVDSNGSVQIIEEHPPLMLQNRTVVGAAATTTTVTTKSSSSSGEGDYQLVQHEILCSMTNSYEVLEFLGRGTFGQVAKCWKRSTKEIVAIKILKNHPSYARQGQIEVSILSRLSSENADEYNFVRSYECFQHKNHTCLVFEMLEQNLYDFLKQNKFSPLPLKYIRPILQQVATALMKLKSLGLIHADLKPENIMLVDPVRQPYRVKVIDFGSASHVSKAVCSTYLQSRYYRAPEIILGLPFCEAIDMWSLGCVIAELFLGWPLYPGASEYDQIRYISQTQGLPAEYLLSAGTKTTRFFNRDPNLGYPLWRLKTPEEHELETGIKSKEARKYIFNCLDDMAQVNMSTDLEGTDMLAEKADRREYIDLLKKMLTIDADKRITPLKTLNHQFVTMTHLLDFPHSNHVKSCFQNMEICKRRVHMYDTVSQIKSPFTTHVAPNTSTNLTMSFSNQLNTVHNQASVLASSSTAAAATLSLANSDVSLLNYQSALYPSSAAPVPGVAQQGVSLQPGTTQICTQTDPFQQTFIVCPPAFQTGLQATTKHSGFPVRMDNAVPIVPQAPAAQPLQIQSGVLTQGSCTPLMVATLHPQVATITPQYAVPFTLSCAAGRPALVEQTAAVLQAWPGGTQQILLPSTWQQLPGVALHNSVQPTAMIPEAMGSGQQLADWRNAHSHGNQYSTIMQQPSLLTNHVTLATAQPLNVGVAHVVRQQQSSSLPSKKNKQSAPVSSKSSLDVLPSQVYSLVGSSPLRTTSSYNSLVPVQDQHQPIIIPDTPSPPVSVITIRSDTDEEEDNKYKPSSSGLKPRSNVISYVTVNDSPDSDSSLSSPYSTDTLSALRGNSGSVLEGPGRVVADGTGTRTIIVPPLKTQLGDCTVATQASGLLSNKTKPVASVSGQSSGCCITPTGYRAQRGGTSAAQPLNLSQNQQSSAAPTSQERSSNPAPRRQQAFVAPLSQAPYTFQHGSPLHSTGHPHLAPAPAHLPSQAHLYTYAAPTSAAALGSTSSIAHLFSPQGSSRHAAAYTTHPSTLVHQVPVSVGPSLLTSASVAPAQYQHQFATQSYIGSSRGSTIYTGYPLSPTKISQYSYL
Chain of Serine/threonine-protein kinase PAK 4 (Homo sapiens) (O96013 whole entry, looked up): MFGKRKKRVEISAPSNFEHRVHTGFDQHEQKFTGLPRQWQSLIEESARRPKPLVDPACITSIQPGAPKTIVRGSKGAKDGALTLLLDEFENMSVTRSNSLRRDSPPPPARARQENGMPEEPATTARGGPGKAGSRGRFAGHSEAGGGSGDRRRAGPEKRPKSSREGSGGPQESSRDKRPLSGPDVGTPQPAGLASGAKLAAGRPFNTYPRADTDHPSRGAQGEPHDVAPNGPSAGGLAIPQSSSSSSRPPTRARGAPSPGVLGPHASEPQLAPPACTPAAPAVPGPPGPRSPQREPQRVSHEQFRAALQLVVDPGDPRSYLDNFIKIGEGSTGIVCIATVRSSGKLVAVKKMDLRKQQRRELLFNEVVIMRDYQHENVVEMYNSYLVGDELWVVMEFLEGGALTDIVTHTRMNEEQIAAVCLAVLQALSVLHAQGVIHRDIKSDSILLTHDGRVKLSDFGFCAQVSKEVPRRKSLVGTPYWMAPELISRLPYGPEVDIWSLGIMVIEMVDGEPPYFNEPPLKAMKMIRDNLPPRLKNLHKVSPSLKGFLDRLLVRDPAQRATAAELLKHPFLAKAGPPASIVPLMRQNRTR
Chain of Cyclin-dependent kinase 6 (Q00534 whole entry): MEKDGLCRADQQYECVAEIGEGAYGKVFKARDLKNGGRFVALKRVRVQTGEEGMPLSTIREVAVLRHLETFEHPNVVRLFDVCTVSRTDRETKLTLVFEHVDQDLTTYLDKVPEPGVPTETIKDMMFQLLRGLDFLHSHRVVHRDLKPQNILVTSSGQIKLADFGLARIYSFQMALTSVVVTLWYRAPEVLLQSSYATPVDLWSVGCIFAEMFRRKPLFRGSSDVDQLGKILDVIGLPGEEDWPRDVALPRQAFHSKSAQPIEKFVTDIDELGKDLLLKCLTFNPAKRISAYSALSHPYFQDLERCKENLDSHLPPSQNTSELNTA
Chain of Cyclin-dependent kinase 4 (P11802 whole entry): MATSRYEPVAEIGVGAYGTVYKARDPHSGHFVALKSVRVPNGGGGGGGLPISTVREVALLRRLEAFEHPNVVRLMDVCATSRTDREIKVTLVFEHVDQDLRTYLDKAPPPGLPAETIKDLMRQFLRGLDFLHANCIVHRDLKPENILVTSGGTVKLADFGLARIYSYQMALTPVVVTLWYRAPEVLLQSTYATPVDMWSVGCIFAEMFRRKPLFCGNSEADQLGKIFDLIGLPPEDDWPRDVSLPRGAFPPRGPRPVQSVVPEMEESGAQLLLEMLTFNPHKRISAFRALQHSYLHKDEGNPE
Chain of Cyclin-dependent kinase 7 (P50613 whole entry): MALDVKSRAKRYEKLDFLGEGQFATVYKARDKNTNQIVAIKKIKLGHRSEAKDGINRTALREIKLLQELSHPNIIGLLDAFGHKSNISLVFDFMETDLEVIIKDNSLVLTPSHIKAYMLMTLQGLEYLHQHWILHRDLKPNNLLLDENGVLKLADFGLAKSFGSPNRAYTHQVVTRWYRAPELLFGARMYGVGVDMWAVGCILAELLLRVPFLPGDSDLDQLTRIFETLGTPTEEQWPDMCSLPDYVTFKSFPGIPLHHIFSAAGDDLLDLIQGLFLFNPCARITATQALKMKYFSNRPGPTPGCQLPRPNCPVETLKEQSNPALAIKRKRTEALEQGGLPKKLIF

inhibition at 0.25 h, 10 µM (CYP2C9): 27.9%
IC50 [3]: > 500 nM
C0 [4]: 459 ng/mL
IC50 [6]: 209 nM
MRT inf [8]: 7.02 h
Cmax [9]: 358 ng/mL
GI50 (HT-29): 560 nM
inhibition at 0.25 h, 10 µM (CYP3A4): 0%
remaining at 1 h, 100 µM [10]: 19.6%
inhibition [12]: < 50%
bioavailability [15]: 12.3%
AUC(0-t) [18]: 361 ng·h/mL
inhibition [21]: < 50%
inhibition [22]: < 50%
MRT inf [23]: 1.77 h
IC50 [24]: > 500 nM
inhibition [26]: < 50%
IC50 [27]: > 500 nM
inhibition [28]: < 50%
IC50 [30]: 2.9 nM
IC50 [31]: > 500 nM
AUC(0-t) [32]: 168 ng·h/mL
Compound: CC(C)n1nnc2ccc(-c3ccnc(Nc4cc(C(=O)N5CCCN(C)CC5)ccn4)c3)cc21
inhibition (HCT-116 [1]): Dose-Dependent Effect
Activity (HCT-116 [2]): Dose-Dependent Effect
Activity (HCT-116 [5]): Active
Activity (HCT-116 [7]): Active
Activity (HCT-116 [11]): Dose-Dependent Effect
Activity (HCT-116 [13]): inactive
Activity (HCT-116 [14]): Active
Activity (HCT-116 [16]): Active
Activity (HCT-116 [17]): Active
Activity [19]: Non-Toxic
Activity (HCT-116 [20]): Active
Activity [25]: Non-Toxic
RatioGI50 [29]: 92.97
Activity (HCT-116 [33]): Dose-Dependent Effect
Activity [34]: Non-Toxic
Activity [35]: Non-Toxic
